US8460669B2, “Compositions and methods for identifying response targets and treating flavivirus infection responses” (Academia Sinica, priority 2005, dated 2013)

Legend:
MMR.Fc = target: T1, MMR.Fc (Homo sapiens, UniProt P22897); experiment: Sugar competition EIA, MMR.Fc binding to GLPS-F3; conditions: sugar 1 mg/ml
T1 construct: The extracellular domains of lectin receptors, TREMs and TLTs were cloned by the reverse-transcriptase polymerase chain reaction (RT-PCR); made in house; host or cells: 293-F (FreeStyle 293) cells
T1 sequence (P22897 19-1389 limits assumed): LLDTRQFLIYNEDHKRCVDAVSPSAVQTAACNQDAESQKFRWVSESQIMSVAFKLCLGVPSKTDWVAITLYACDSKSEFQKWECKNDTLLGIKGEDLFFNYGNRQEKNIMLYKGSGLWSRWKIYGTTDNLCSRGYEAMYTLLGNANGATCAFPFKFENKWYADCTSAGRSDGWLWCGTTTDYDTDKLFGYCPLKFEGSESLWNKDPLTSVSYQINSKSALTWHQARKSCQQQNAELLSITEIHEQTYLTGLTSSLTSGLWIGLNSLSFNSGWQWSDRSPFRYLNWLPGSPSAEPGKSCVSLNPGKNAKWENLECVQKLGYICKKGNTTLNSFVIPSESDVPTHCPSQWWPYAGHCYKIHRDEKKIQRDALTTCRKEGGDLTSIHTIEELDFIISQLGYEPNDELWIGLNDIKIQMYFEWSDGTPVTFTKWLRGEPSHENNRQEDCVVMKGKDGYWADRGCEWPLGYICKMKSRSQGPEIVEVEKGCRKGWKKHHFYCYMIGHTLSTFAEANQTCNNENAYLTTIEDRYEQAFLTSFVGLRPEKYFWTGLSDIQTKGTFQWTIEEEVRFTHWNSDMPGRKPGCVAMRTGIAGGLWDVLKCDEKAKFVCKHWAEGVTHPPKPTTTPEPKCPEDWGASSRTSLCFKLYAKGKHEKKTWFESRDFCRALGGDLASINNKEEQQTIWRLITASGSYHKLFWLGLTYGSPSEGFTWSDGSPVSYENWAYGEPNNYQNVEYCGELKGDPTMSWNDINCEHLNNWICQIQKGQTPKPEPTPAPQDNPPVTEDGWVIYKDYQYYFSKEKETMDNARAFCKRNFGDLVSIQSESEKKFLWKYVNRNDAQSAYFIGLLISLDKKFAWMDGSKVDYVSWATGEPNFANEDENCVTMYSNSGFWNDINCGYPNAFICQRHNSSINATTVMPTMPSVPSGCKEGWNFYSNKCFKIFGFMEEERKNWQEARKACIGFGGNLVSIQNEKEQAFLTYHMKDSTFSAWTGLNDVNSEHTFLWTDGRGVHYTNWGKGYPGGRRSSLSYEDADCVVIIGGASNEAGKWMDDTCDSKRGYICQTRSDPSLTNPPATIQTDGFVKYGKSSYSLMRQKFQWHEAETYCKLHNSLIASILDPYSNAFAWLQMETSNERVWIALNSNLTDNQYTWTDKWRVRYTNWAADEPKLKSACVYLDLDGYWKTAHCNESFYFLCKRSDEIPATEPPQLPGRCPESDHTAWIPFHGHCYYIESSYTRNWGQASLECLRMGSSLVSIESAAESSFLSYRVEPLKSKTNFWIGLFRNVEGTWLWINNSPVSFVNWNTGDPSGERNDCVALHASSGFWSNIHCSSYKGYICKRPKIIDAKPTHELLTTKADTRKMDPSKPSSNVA
Experimental: (§1) The interaction between GLPS-F3 and receptor.Fc was then tested. Unbiotinylated GLPS-F3 was immobilized at 100 ng/well as described above, and 100 μL receptor.Fc fusion protein (1 μg/ml in 2 mM MgCl2/2 mM CaCl2/1% BSA/TBST) was added into each well and incubated for 1 hour at room temperature. After washing with TBST, wells were incubated with peroxidase-conjugated goat anti-human IgG Ab (1:5000 dilution, Jackson ImmunoResearch Laboratories) in blocking buffer at room temperature for 30 min. Wells were incubated with 100 μL TMB substrate for 15 min after TBST washing and read at 450 nm in a Fusion plate reader (Perkin Elmer). The results were normalized with respect to Fc.Dectin-1 binding (Dectin-1 is a known lectin receptor that binds to β-1,3-glucan which is the backbone found in GLPS-F3). FIG. 6B depicts in graphical form the affinity of each receptor for GLPS-F3 relative to Dectin-1. […] There was also weaker but positive GLPS-F3 binding ability (25-50% binding intensity compared to Fc.dectin-1) found in Fc.NKG2D, Fc.MINCLE, Fc.mKCR, DCAL1.Fc, DEC205.Fc, Endo180.Fc and NKp30(NCR3).Fc.
(§2) To understand the interaction of GLPS-F3 with specific innate immunity receptors, the polysaccharides mannan and β-glucan and the monosaccharides D-mannose (Man), D-glucose (Glc), N-acetyl-glucosamine (GlcNAc), D-galactose (Gal), N-acetyl-galactosamine (GalNAc), L-fucose (Fuc) and sialic acid, were used in a competition assay. […] The assays were carried out as in Example 9, with the addition of 1 mg/ml of each polysaccharide or monosaccharide.

TLR4.Fc = target: T2, TLR4.Fc (Homo sapiens, UniProt O00206); experiment: Sugar competition EIA, TLR4.Fc binding to GLPS-F3; conditions: sugar 1 mg/ml
T2 construct: The extracellular domains of several innate immunity receptors from immune cells were cloned by reverse-transcription polymerase chain reaction (RT-PCR); made in house; host or cells: 293-F (FreeStyle 293) cells
T2 sequence (O00206 24-631 limits assumed): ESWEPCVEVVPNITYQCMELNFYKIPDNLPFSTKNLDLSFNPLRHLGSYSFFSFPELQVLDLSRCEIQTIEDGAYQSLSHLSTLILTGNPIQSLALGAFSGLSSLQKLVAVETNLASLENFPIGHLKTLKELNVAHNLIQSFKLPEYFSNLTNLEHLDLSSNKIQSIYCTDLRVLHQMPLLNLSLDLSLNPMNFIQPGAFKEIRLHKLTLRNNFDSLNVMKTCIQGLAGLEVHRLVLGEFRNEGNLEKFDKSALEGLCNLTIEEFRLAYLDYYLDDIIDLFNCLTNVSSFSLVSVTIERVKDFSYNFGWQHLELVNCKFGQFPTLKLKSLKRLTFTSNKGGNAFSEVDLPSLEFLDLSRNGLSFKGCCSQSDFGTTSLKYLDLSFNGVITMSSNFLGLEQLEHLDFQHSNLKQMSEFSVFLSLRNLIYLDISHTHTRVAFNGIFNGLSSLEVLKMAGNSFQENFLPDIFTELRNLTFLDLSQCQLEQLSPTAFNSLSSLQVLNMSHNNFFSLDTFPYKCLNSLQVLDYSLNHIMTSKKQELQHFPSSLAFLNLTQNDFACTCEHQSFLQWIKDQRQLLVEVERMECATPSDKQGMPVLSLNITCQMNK
Experimental: as §1, §2

Dectin-1.Fc = target: T3, Dectin-1.Fc (Homo sapiens, UniProt Q9BXN2); experiment: Immunosorbent dot binding assay with Dectin-1.Fc; conditions: competitor 0.1 μg-1000 μg, or EDTA 10 mM in TBST
T3 construct: The extracellular domains of lectin receptors, TREMs and TLTs were cloned by the reverse-transcriptase polymerase chain reaction (RT-PCR); made in house; host or cells: 293-F (FreeStyle 293) cells
T3 sequence (Q9BXN2 66-247 limits assumed): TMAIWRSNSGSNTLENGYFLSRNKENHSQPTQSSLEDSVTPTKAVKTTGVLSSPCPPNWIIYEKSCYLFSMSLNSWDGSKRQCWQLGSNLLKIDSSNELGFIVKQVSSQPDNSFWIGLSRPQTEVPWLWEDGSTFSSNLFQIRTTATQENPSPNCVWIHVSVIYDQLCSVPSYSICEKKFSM

DC-SIGN = target: T4, DC-SIGN (Homo sapiens, UniProt Q9NNX6); experiment: Sugar competition EIA, Fc.DC-SIGN binding to GLPS-F3; conditions: sugar 1 mg/ml
T4 construct: The extracellular domains of lectin receptors, TREMs and TLTs were cloned by the reverse-transcriptase polymerase chain reaction (RT-PCR); made in house; host or cells: 293-F (FreeStyle 293) cells
T4 sequence (Q9NNX6 59-404 limits assumed): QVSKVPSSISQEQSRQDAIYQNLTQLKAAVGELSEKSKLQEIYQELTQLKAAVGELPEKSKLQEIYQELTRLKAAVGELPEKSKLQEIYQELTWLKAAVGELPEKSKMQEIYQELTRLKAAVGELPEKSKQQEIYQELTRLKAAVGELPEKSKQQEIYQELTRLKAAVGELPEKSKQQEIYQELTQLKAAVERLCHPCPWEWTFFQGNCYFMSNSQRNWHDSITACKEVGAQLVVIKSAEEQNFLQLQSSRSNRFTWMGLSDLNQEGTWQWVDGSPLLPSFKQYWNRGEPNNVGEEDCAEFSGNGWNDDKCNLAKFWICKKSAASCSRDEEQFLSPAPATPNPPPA
Experimental: as §1, §2

Langerin = target: T5, Langerin (Homo sapiens, UniProt Q9UJ71); experiment: Sugar competition EIA, Fc.Langerin binding to GLPS-F3; conditions: sugar 1 mg/ml
T5 construct: The extracellular domains of lectin receptors, TREMs and TLTs were cloned by the reverse-transcriptase polymerase chain reaction (RT-PCR); made in house; host or cells: 293-F (FreeStyle 293) cells
T5 sequence (Q9UJ71 65-328 limits assumed): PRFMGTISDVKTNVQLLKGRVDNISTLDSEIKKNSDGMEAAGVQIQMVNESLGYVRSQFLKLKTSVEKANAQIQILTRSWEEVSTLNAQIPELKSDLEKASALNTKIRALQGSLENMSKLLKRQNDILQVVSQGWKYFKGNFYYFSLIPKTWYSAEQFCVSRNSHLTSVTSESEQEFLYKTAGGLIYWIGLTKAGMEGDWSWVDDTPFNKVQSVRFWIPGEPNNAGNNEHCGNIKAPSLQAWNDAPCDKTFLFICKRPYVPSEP
Experimental: as §1, §2

CLEC-2 = target: T6, CLEC-2 (Homo sapiens, UniProt Q9P126); experiment: Sugar competition EIA, Fc.CLEC-2 binding to GLPS-F3; conditions: sugar 1 mg/ml
T6 construct: The extracellular domains of lectin receptors, TREMs and TLTs were cloned by the reverse-transcriptase polymerase chain reaction (RT-PCR); made in house; host or cells: 293-F (FreeStyle 293) cells
T6 sequence (Q9P126 55-229 limits assumed): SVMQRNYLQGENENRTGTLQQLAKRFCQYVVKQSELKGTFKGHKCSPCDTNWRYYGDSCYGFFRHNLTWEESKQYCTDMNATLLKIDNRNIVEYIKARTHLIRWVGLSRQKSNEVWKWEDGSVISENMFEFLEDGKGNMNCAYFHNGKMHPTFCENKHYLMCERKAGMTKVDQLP
Experimental: as §1, §2

CLEC-6 = target: T7, CLEC-6 (Homo sapiens, UniProt Q8WXI8); experiment: Sugar competition EIA, Fc.CLEC-6 binding to GLPS-F3; conditions: sugar 1 mg/ml
T7 construct: The extracellular domains of lectin receptors, TREMs and TLTs were cloned by the reverse-transcriptase polymerase chain reaction (RT-PCR); made in house; host or cells: 293-F (FreeStyle 293) cells
T7 sequence (Q8WXI8 39-215 limits assumed): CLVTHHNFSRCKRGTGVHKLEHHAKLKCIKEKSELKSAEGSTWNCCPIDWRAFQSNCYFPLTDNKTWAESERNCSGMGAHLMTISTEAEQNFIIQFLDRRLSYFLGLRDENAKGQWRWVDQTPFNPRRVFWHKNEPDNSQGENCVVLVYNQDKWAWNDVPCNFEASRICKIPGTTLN
Experimental: as §1, §2

Dectin-1 = target: T8, Dectin-1 (Homo sapiens, UniProt Q9BXN2); experiment: Sugar competition EIA, Fc.Dectin-1 binding to GLPS-F3; conditions: sugar 1 mg/ml
T8 construct: The extracellular domains of lectin receptors, TREMs and TLTs were cloned by the reverse-transcriptase polymerase chain reaction (RT-PCR); made in house; host or cells: 293-F (FreeStyle 293) cells
T8 sequence (Q9BXN2 66-247 limits assumed): T3 sequence (Q9BXN2 66-247 limits assumed)
Experimental: as §1, §2

SMILES: O=C[C@H](O)[C@@H](O)[C@@H](O)[C@H](O)CO [Gal, D-galactose]
- inhibition of interaction between GLPS-F3 and MMR.Fc (MMR.Fc): 36%
- Percentage of binding of TLR4.Fc to GLPS-F3 relative to binding in absence of sugar competitor (TLR4.Fc): 100 ± 2.7%
- inhibition of the interaction between Dectin-1.Fc and F3 (Dectin-1.Fc): not

SMILES: CC(=O)N[C@H]1C(O)O[C@H](CO)[C@@H](O)[C@@H]1O (stereo partly shown) [GlcNAc, N-acetyl-glucosamine]
- Percentage of binding of DC-SIGN Fc fusion to GLPS-F3 relative to binding in absence of sugar competitor (DC-SIGN): 73 ± 8.6%
- inhibition of binding of Fc.DC-SIGN to GLPS-F3 (DC-SIGN): 27%
- Percentage of binding of MMR.Fc to GLPS-F3 relative to binding in absence of sugar competitor (MMR.Fc): 22 ± 3.4%
- inhibition of interaction between GLPS-F3 and MMR.Fc (MMR.Fc): 78%
- Percentage of binding of Langerin Fc fusion to GLPS-F3 relative to binding in absence of sugar competitor (Langerin): 16 ± 2.7%
- inhibition of interaction between Fc.Langerin and GLPS-F3 (Langerin): 84%
- Percentage of binding of CLEC-2 Fc fusion to GLPS-F3 relative to binding in absence of sugar competitor (CLEC-2): 103 ± 10.2%
- Percentage of binding of TLR4.Fc to GLPS-F3 relative to binding in absence of sugar competitor (TLR4.Fc): 99 ± 4.7%
- Percentage of binding of CLEC-6 Fc fusion to GLPS-F3 relative to binding in absence of sugar competitor (CLEC-6): 99 ± 8.5%
- Percentage of binding of Dectin-1 Fc fusion to GLPS-F3 relative to binding in absence of sugar competitor (Dectin-1): 91 ± 2.6%

SMILES: CC(=O)N[C@H]1[C@H]([C@H](O)[C@H](O)CO)OC(O)(C(=O)O)C[C@@H]1O (stereo partly shown) [sialic acid]
- Percentage of binding of DC-SIGN Fc fusion to GLPS-F3 relative to binding in absence of sugar competitor (DC-SIGN): 10 ± 1.0%
- inhibition of binding of Fc.DC-SIGN to GLPS-F3 (DC-SIGN): 90%
- Percentage of binding of MMR.Fc to GLPS-F3 relative to binding in absence of sugar competitor (MMR.Fc): 7 ± 2.4%
- inhibition of interaction between GLPS-F3 and MMR.Fc (MMR.Fc): 93%
- Percentage of binding of Langerin Fc fusion to GLPS-F3 relative to binding in absence of sugar competitor (Langerin): 5 ± 0.3%
- inhibition of interaction between Fc.Langerin and GLPS-F3 (Langerin): 95%
- Percentage of binding of CLEC-2 Fc fusion to GLPS-F3 relative to binding in absence of sugar competitor (CLEC-2): 45 ± 6.2%
- inhibition of interaction of Fc.CLEC-2 to GLPS-F3 (CLEC-2): 55%
- Percentage of binding of TLR4.Fc to GLPS-F3 relative to binding in absence of sugar competitor (TLR4.Fc): 77 ± 3.1%
- Percentage of binding of CLEC-6 Fc fusion to GLPS-F3 relative to binding in absence of sugar competitor (CLEC-6): 94 ± 13.0%
- Percentage of binding of Dectin-1 Fc fusion to GLPS-F3 relative to binding in absence of sugar competitor (Dectin-1): 17 ± 0.3%
- inhibition of interaction between GLPS-F3 and Fc.Dectin-1 (Dectin-1): 83%
